According to patent publication US20090233973A1, “EPOTHILONE DERIVATIVES FOR THE TREATMENT OF MULTIPLE MYELOMA” (priority 2002, published 2009):

Tests used:
Type in all cases: cell-based, human
MM cells [1] = experiment: Proliferation ([3H]-thymidine) and cell viability (MTS) assays
Description: RPMI 8226 and U266 human MM cell lines can be obtained from the American Type Culture Collection (ATCC) of Rockville, Md. Patient derived MM cells are purified from patient BM samples, as described by Y. T. Tai, G. Teoh, Y. Shima, et al in J. Immunol. Methods 235:11, 2000. All human MM cell lines are cultured in RPMI-1640 media (Sigma Chemical, St. Louis, Mo.), containing 10% fetal bovine serum (FBS), 2 mmol/L L-glutamine (L-glut, GIBCO, Grand Island, N.Y.), 100 U/mL penicillin and […] streptomycin (P/S, GIBCO). MM patient cells are >95% CD38+, CD45RA−. […]
MM cells are first starved for 12 h in RPMI-1640 media containing […], and then plated into 96-well microtiter plates (Costar, Cambridge, Mass.), in the presence of drug or DMSO control. […] Proliferation is measured by the incorporation of [^3H]-thymidine (NEN Products, Boston, Mass.). Specifically, cells are pulsed with [^3H]-thymidine (0.5 μCi/well) for the last 6 h of 48 h cultures, harvested onto glass filters with an automatic cell harvester (Cambridge Technology, Cambridge, Mass.), and counted using a LKB Betaplate scintillation counter (Wallac, Gaithersburg, Md.). […] Cells are exposed to the MTS for the last 2 h of 48 h cultures, and absorbance is measured using an ELISA plate reader (Molecular Devices Corp., Sunnyvale, Calif.) at OD of 570 nm.

MM cells [2] = experiment: Cell cycle analysis (propidium iodide, flow cytometry)
Description: MM cells (1×10^6 cells) are cultured in the presence of Epothilone B or DMSO control for 24, 48 and 72 h. Cells are then washed with phosphate buffered saline (PBS), fixed with 70% ethanol, and treated with RNAse (Sigma). Cells are next stained with propidium iodide (PI, 5 μg/mL), and the cell cycle profile is determined using the M software on an Epics flow cytometer (Coulter Immunology, Hialeah, Fla.).

MM.1S cells = experiment: Proliferation of MM cells in a modified Boyden chamber transwell co-culture system with BMSCs; settings: 48 h
Description: Proliferation is measured in a modified Boyden chamber transwell system, using 24-well plates with a […] pore size inserts (Costar). BMSCs (4×10^4 cells/well) are plated in the lower chamber, starved, and incubated in an epothilone as described above. MM cells (20×10^4 cells/ml) are then placed in the upper chamber (insert), and [^3H]-thymidine uptake in the individual chambers is measured at 48 h as described above.
MM.1S cells are placed in the upper chamber of a transwell co-culture system in order to preclude direct contact between MM cells and BMSCs, but nonetheless allow for diffusion of humoral factors. Despite the lack of contact between the two cell types, uptake of [^3H]-dT by MM.1S cells incubated with BMSCs is increased by 2.2-fold (p<0.0001) at 48 h.

C/C(=C\c1csc(C)n1)[C@@H]1C[C@@H]2O[C@]2(C)CCC[C@H](C)[C@H](O)[C@@H](C)C(=O)C(C)(C)[C@@H](O)CC(=O)O1 [epothilone B]
growth and survival of myeloma cells (MM cells [1]): directly inhibit the growth and survival of myeloma cells
cell cycle effect / apoptosis (MM cells [2]): induces G2M arrest in MM cells with subsequent apoptosis
proliferation of MM.1S cells ([3H]-dT uptake) (MM.1S cells): reduces proliferation of MM.1S cells
